In ChEMBL document CHEMBL3102795, “Discovery of 1-oxa-4,9-diazaspiro[5.5]undecane-based trisubstituted urea derivatives as highly potent soluble epoxide hydrolase inhibitors and orally active drug candidates for treating of chronic kidney diseases” (Bioorg Med Chem Lett, 2014):
Converted amounts (≈) assume the structure as drawn.

How the values were obtained:
[1] = biological target: T1, Bifunctional epoxide hydrolase 2 (Homo sapiens, UniProt P34913); test: Inhibition of human recombinant sEH expressed in baculovirus infected insect Sf9 cells using cyano(6-methoxynaphthalen-2-yl)methyl trans-[(3-phenyloxiran-2-yl)methyl] carbonate as substrate preincubated for 30 mins followed by substrate addition measured after 20 to 45 mins by fluorescence assay
T1 sequence (P34913 whole entry): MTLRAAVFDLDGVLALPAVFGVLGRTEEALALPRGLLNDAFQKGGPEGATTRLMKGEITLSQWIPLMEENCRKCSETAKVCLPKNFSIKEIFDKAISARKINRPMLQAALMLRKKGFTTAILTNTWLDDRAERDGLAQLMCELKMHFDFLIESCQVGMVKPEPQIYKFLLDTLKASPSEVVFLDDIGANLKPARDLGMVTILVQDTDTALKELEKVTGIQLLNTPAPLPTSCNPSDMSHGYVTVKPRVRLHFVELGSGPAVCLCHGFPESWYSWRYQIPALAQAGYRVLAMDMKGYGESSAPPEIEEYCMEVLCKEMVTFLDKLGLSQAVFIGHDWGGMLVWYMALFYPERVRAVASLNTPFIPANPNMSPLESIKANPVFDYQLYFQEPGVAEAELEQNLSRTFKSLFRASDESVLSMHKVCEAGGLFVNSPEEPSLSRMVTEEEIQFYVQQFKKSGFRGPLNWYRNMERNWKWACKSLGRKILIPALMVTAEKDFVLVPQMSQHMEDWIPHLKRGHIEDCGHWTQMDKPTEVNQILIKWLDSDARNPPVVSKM

[2] = biological target: T2, Bifunctional epoxide hydrolase 2 (Rattus norvegicus, UniProt P80299); test: Inhibition of rat recombinant sEH expressed in baculovirus infected insect Sf9 cells using cyano(6-methoxynaphthalen-2-yl)methyl trans-[(3-phenyloxiran-2-yl)methyl] carbonate as substrate preincubated for 30 mins followed by substrate addition measured after 20 to 45 mins by fluorescence assay
T2 sequence (P80299 whole entry): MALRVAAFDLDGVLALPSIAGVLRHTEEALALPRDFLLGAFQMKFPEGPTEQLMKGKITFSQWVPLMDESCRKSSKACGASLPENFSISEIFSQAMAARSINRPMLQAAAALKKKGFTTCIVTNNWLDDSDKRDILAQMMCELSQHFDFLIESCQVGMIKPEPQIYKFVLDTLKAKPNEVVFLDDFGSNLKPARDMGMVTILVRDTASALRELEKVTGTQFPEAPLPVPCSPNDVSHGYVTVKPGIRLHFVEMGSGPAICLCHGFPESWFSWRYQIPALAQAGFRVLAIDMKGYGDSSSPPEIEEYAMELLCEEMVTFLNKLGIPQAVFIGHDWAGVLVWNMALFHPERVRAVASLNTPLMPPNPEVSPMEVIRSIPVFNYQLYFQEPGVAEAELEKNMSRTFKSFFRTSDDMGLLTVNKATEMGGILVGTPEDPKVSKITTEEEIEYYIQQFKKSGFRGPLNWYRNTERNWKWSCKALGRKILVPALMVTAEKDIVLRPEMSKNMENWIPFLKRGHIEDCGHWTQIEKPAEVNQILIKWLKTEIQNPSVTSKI

[3] = Solubility of the compound in simulated intestinal fluid compliant with Japanese pharmacopeia; format: ADME
[4] = system: Liver microsome; test: Metabolic stability in human liver microsomes measured per mg of protein; format: ADME
[5] = Solubility of the compound in simulated gastric fluid compliant with Japanese pharmacopeia; format: ADME
[6] = Total clearance in rat at 0.2 mg/kg, iv; format: ADME, organism-based; set-up: dose 0.2 mg/kg, route intravenous; details: in vivo
[7] = Oral bioavailability in rat at 1 mg/kg; format: ADME, organism-based; details: in vivo
[8] = AUC (0 to infinity) in rat at 0.2 mg/kg, iv; format: ADME, organism-based; set-up: time infinity, dose 0.2 mg/kg, route intravenous; details: plasma
[9] = Cmax in rat at 1 mg/kg, po; format: ADME, organism-based; set-up: dose 1 mg/kg, route oral; details: in vivo
[10] = Drug uptake in rat at 0.2 mg/kg, iv at 5 mins; format: ADME, organism-based; set-up: dose 0.2 mg/kg, route intravenous; details: in vivo, read-out: Drug uptake
[11] = Half life in rat at 0.2 mg/kg, iv; format: ADME, organism-based; set-up: dose 0.2 mg/kg, route intravenous; details: in vivo
[12] = Volume of distribution at steady state in rat at 0.2 mg/kg, iv; format: ADME, organism-based; set-up: dose 0.2 mg/kg, route intravenous; details: in vivo, read-out: Vdss
[13] = Tmax in rat at 1 mg/kg, po; format: ADME, organism-based; set-up: dose 1 mg/kg, route oral; details: in vivo
[14] = AUC (0 to infinity) in rat at 1 mg/kg, po; format: ADME, organism-based; set-up: time infinity, dose 1 mg/kg, route oral; details: plasma

Row | Compound | IC50 [1] | IC50 [2] | solubility [3] | CLint [4] | solubility [5] | clearance [6] | bioavailability [7] | AUC(0-inf) [8] | Cmax [9] | concentration at 5 min [10] | half-life [11] | Vd [12] | Tmax [13] | AUC(0-inf) [14]
1 | O=C(Nc1ccc(OC(F)(F)F)cc1)N1CCC2(CCCN(C(=O)c3c(F)cccc3F)C2)CC1 | 2.96 nM | – | – | – | – | – | – | – | – | – | – | – | – | –
2 | O=C1Cc2cc(C(=O)N3CCC4(CC3)CN(C(=O)Nc3ccc(OC(F)(F)F)cc3)CCO4)ccc2N1 | 1.8 nM | > 20 nM | 93 µg/mL (≈ 179 µM) | 29 µL/min/mg | 96 µg/mL (≈ 185 µM) | – | – | – | – | – | – | – | – | –
3 | CC(=O)Nc1ccccc1C(=O)N1CCC2(CC1)CN(C(=O)Nc1ccc(C(F)(F)F)cc1)CCO2 | 0.8 nM | 6.8 nM | 93 µg/mL (≈ 184 µM) | 39 µL/min/mg | 92 µg/mL (≈ 182 µM) | – | – | – | – | – | – | – | – | –
4 | Cc1cc(C(=O)N2CCC3(CC2)CN(C(=O)Nc2ccc(OC(F)(F)F)cc2)CCO3)no1 | 1.4 nM | 25.7 nM | 83 µg/mL (≈ 177 µM) | 47 µL/min/mg | 84 µg/mL (≈ 179 µM) | 36.9 mL/min/kg | 24.1% | 90.2 ng·h/mL | 9.58 ng/mL | 77.7 ng/mL | 1.17 h | 3.31 L/kg | 2 h | 123 ng·h/mL
5 | O=C(Nc1ccc(OC(F)(F)F)cc1)N1CCOC2(CCN(C(=O)c3c[nH]nc3C3CC3)CC2)C1 | 1.1 nM | 96.9 nM | 92 µg/mL (≈ 186 µM) | 35 µL/min/mg | 93 µg/mL (≈ 188 µM) | – | – | – | – | – | – | – | – | –
6 | O=C(Nc1ccc(C(F)(F)F)cc1)N1CCOC2(CCN(C(=O)c3ccccn3)CC2)C1 | 4.2 nM | – | 83 µg/mL (≈ 185 µM) | – | 85 µg/mL (≈ 190 µM) | – | – | – | – | – | – | – | – | –
7 | O=C(Nc1ccc(OC(F)(F)F)cc1)N1CCC2(CC1)CN(C(=O)c1c(F)cccc1F)CCO2 | 5.4 nM | – | 46 µg/mL (≈ 92.1 µM) | – | 52 µg/mL (≈ 104 µM) | – | – | – | – | – | – | – | – | –
8 | O=C(Nc1ccc(OC(F)(F)F)cc1)N1CCCC2(CCN(C(=O)c3c(F)cccc3F)CC2)C1 | 0.125 nM | 3.3 nM | 9 µg/mL (≈ 18.1 µM) | 602 µL/min/mg | 9 µg/mL (≈ 18.1 µM) | – | – | – | – | – | – | – | – | –
9 | O=C(Nc1ccc(C(F)(F)F)cc1)N1CCOC2(CCN(C(=O)c3ccco3)CC2)C1 | 5.4 nM | – | 75 µg/mL (≈ 171 µM) | – | 75 µg/mL (≈ 171 µM) | – | – | – | – | – | – | – | – | –
10 | O=C(Nc1ccc(OC(F)(F)F)cc1)N1CCOC2(CCN(C(=O)c3c(F)cccc3F)CC2)C1 | 0.7 nM | 18.5 nM | 39 µg/mL (≈ 78.1 µM) | 86 µL/min/mg | 44 µg/mL (≈ 88.1 µM) | – | – | – | – | – | – | – | – | –
11 | O=C(Nc1ccc(C(F)(F)F)cc1)N1CCOC2(CCN(C(=O)c3ccccc3Cl)CC2)C1 | 1.4 nM | 13 nM | 12 µg/mL (≈ 24.9 µM) | 48 µL/min/mg | 10 µg/mL (≈ 20.8 µM) | – | – | – | – | – | – | – | – | –
12 | O=C(Nc1ccc(OC(F)(F)F)cc1)N1CCOC2(CCN(C(=O)C3CCCCC3)CC2)C1 | 0.6 nM | 14.5 nM | 63 µg/mL (≈ 134 µM) | 357 µL/min/mg | 69 µg/mL (≈ 147 µM) | – | – | – | – | – | – | – | – | –
13 | COc1ccccc1CC(=O)N1CCC2(CC1)CN(C(=O)Nc1ccc(OC(F)(F)F)cc1)CCO2 | 0.5 nM | 71.6 nM | 59 µg/mL (≈ 116 µM) | 461 µL/min/mg | 66 µg/mL (≈ 130 µM) | – | – | – | – | – | – | – | – | –
14 | O=C(Nc1ccc(C(F)(F)F)cc1)N1CCOC2(CCN(C(=O)c3cccc(Cl)c3)CC2)C1 | 1.2 nM | 36.9 nM | 21 µg/mL (≈ 43.6 µM) | 100 µL/min/mg | 26 µg/mL (≈ 54 µM) | – | – | – | – | – | – | – | – | –
15 | O=C(CC1CC1)N1CCC2(CC1)CN(C(=O)Nc1ccc(C(F)(F)F)cc1)CCO2 | 2.1 nM | 31.4 nM | 79 µg/mL (≈ 186 µM) | 74 µL/min/mg | 79 µg/mL (≈ 186 µM) | – | – | – | – | – | – | – | – | –
16 | Cc1cnc(C(=O)N2CCC3(CC2)CN(C(=O)Nc2ccc(OC(F)(F)F)cc2)CCO3)cn1 | 0.9 nM | 8.8 nM | 92 µg/mL (≈ 192 µM) | 12 µL/min/mg | 91 µg/mL (≈ 190 µM) | 30.1 mL/min/kg | 11.1% | 111 ng·h/mL | 8.64 ng/mL | 134 ng/mL | 1.53 h | 1.82 L/kg | 1 h | 61.3 ng·h/mL
17 | O=C(Nc1ccc(C(F)(F)F)cc1)N1CCOC2(CCN(C(=O)c3ccccc3)CC2)C1 | 3.2 nM | – | 63 µg/mL (≈ 141 µM) | – | 62 µg/mL (≈ 139 µM) | – | – | – | – | – | – | – | – | –
18 | O=C(Nc1ccc(C(F)(F)F)cc1)N1CCOC2(CCN(C(=O)c3ccc(Cl)cc3)CC2)C1 | 1 nM | 24.9 nM | 23 µg/mL (≈ 47.7 µM) | 21 µL/min/mg | 29 µg/mL (≈ 60.2 µM) | – | – | – | – | – | – | – | – | –
19 | O=C(Nc1ccc(OC(F)(F)F)cc1)N1CCOC2(CCN(C(=O)c3cnoc3C3CC3)CC2)C1 | 0.6 nM | 22.2 nM | 89 µg/mL (≈ 180 µM) | 87 µL/min/mg | 86 µg/mL (≈ 174 µM) | – | – | – | – | – | – | – | – | –
20 | O=C(Nc1ccc(C(F)(F)F)cc1)N1CCOC2(CCN(C(=O)c3c(F)cccc3F)CC2)C1 | 1.3 nM | 19.1 nM | 38 µg/mL (≈ 78.6 µM) | 93 µL/min/mg | 43 µg/mL (≈ 88.9 µM) | – | – | – | – | – | – | – | – | –
21 | CC(C)(C)C(=O)N1CCC2(CC1)CN(C(=O)Nc1ccc(C(F)(F)F)cc1)CCO2 | 2.9 nM | 12 nM | 73 µg/mL (≈ 171 µM) | 98 µL/min/mg | 76 µg/mL (≈ 178 µM) | – | – | – | – | – | – | – | – | –
22 | N#Cc1ccc(C(=O)N2CCC3(CC2)CN(C(=O)Nc2ccc(C(F)(F)F)cc2)CCO3)cc1 | 1.9 nM | 15 nM | 82 µg/mL (≈ 174 µM) | 3 µL/min/mg | 85 µg/mL (≈ 180 µM) | – | – | – | – | – | – | – | – | –
23 | O=C(Cc1ccccn1)N1CCC2(CC1)CN(C(=O)Nc1ccc(OC(F)(F)F)cc1)CCO2 | 0.7 nM | > 20 nM | 90 µg/mL (≈ 188 µM) | 132 µL/min/mg | 92 µg/mL (≈ 192 µM) | – | – | – | – | – | – | – | – | –
24 | O=C(Nc1ccc(OC(F)(F)F)cc1)N1CCOC2(CCN(C(=O)C3(c4ccccc4)CC3)CC2)C1 | 0.4 nM | 28 nM | 33 µg/mL (≈ 65.5 µM) | 228 µL/min/mg | 37 µg/mL (≈ 73.5 µM) | – | – | – | – | – | – | – | – | –
25 | O=C(Nc1ccc(OC(F)(F)F)cc1)N1CCOC2(CCN(C(=O)c3cc(Cl)ccn3)CC2)C1 | 0.6 nM | 11.6 nM | 89 µg/mL (≈ 178 µM) | 62 µL/min/mg | 90 µg/mL (≈ 180 µM) | – | – | – | – | – | – | – | – | –
